Laboratory results from patent publication US9346815B2, “5-chloro-2-difluoromethoxyphenyl pyrazolopyrimidine compounds, compositions and methods of use thereof” (Genentech, Inc., priority 2014, dated 2016).

How the values were obtained:
[1] = target: isolated recombinant JAK1 kinase domain (Homo sapiens (Human), UniProt P23458); assay: JAK1 enzyme assay (Caliper LabChip, peptide phosphorylation); assay type: biochemical; conditions: isolated recombinant JAK1 kinase domain, 25 μM ATP
[2] = system: JAK1-dependent STAT6 phosphorylation downstream of IL-13 stimulation in BEAS-2B human bronchial epithelial cells; assay: JAK1 pathway assay in BEAS-2B cells (IL-13-pSTAT6, MSD); assay type: cell-based; conditions: read-out: IL13-pSTAT6 EC50 (uM)_BEAS-2B
Method: JAK1 Pathway Assay in Cell Lines was Carried Out as Follows:
Inhibitor potency (EC50) was determined in cell-based assays designed to measure JAK1 dependent STAT phosphorylation.
In one assay approach, TF-1 human erythroleukemia cells obtained from the American Type Culture Collection (ATCC; Manassas, Va.) were used to measure JAK1-dependent STAT6 phosphorylation downstream of IL-13 stimulation. Prior to use in the assays, TF-1 cells were starved of GM-CSF overnight in OptiMEM medium (Life Technologies, Grand Island, N.Y.) supplemented with 0.5% charcoal/dextran stripped fetal bovine serum (FBS), 0.1 mM non-essential amino acids (NEAA), and 1 mM sodium pyruvate. The assays were run in 384-well plates in serum-free OptiMEM medium using 300,000 cells per well. In a second assay approach, BEAS-2B human bronchial epithelial cells obtained from ATCC were plated at 100,000 cells per well of a 96-well plate one day prior to the experiment. The BEAS-2B assay was run in complete growth medium (bronchial epithelial basal medium plus bulletkit; Lonza; Basel, Switzerland).
Test compounds were serially diluted 1:2 in DMSO and then diluted 1:50 in medium just before use. Diluted compounds were added to the cells, for a final DMSO concentration of 0.2%, and incubated for 30 min (for the TF-1 assay) or 1 hr (for the BEAS-2B assay) at 37° C. Then, cells were stimulated with human recombinant cytokine at their respective EC90 concentrations, as previously determined for each individual lot. Cells were stimulated with IL-13 (R&D Systems, Minneapolis, Minn.) for 15 min at 37° C. The TF-1 cell reactions were stopped by the direct addition of 10× lysis buffer (Cell Signaling Technologies, Danvers, Mass.), whereas the BEAS-2B cell incubations were halted by the removal of medium and addition of 1× lysis buffer. The resultant samples were frozen in the plates at −80° C. Compound mediated inhibition of STAT6 phosphorylation was measured in the cell lysates using MesoScale Discovery (MSD) technology (Gaithersburg, Md.).

[3] = target: isolated recombinant JAK2 kinase domain (Homo sapiens (Human), UniProt O60674); assay: JAK2 enzyme assay (Caliper LabChip, peptide phosphorylation); assay type: biochemical; conditions: 25 μM ATP
Sequence of isolated recombinant JAK2 kinase domain (O60674 849-1124): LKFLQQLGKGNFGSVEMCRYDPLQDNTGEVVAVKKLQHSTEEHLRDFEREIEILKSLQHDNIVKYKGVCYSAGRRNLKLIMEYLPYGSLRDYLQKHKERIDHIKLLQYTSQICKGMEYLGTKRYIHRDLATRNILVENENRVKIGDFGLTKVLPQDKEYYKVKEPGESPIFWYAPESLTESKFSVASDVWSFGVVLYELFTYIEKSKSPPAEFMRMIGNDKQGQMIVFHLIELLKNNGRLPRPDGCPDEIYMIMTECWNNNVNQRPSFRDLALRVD

Sequence of isolated recombinant JAK1 kinase domain (P23458 875-1153): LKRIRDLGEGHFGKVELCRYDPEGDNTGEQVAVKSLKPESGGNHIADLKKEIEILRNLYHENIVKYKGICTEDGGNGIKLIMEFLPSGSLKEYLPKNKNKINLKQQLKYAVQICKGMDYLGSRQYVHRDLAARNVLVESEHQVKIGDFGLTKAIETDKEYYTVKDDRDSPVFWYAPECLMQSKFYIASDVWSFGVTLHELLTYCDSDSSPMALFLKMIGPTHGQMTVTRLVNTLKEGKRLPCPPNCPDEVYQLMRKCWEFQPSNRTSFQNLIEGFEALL

| Structure (SMILES) | Ki [1] | EC50 [2] | Ki [3] |
| --- | --- | --- | --- |
| CN1CCN(C2CCN(C(=O)Cn3cc(NC(=O)c4cnn5cccnc45)c(-c4cc(Cl)ccc4OC(F)F)n3)CC2)CC1=O [Example 416, N-(3-(5-chloro-2-(difluoromethoxy)phenyl)-1-(2-(4-(4-methyl-3-oxopiperazin-1-yl)piperidin-1-yl)-2-oxoethyl)-1H-pyrazol-4-yl)pyrazolo[1,5-a]pyrimidine-3-carboxamide] | 0.41 nM | 0.0316 µM |  |
| CCOC(=O)CNC1CCN(C(=O)Cn2cc(NC(=O)c3cnn4cccnc34)c(-c3cc(Cl)ccc3OC(F)F)n2)CC1 [Example 364, ethyl 2-[[1-(2-[3-[5-chloro-2-(difluoromethoxy)phenyl]-4-[pyrazolo[1,5-a]pyrimidine-3-amido]-1H-pyrazol-1-yl]acetyl)piperidin-4-yl]amino]acetate] |  | 0.0952 µM | 1.6 nM |
| O=C(CN1CCOCC1)Cn1cc(NC(=O)c2cnn3cccnc23)c(-c2cc(Cl)ccc2OC(F)F)n1 [Example 412, N-(3-(5-chloro-2-(difluoromethoxy)phenyl)-1-(3-morpholino-2-oxopropyl)-1H-pyrazol-4-yl)pyrazolo[1,5-a]pyrimidine-3-carboxamide] | 1.7 nM | 0.0395 µM |  |
| COC(=O)CCN1CCN(C(=O)Cn2cc(NC(=O)c3cnn4cccnc34)c(-c3cc(Cl)ccc3OC(F)F)n2)CC1 [Example 331, methyl 3-[4-(2-[3-[5-chloro-2-(difluoromethoxy)phenyl]-4-[pyrazolo[1,5-a]pyrimidine-3-amido]-1H-pyrazol-1-yl]acetyl)piperazin-1-yl]propanoate] | 0.39 nM | 0.0176 µM |  |
| O=C(O)CCN1CCN(C(=O)Cn2cc(NC(=O)c3cnn4cccnc34)c(-c3cc(Cl)ccc3OC(F)F)n2)CC1 [Example 353, 3-[4-(2-[3-[5-chloro-2-(difluoromethoxy)phenyl]-4-[pyrazolo[1,5-a]pyrimidine-3-amido]-1H-pyrazol-1-yl]acetyl)piperazin-1-yl]propanoic acid] | 0.32 nM | 3.61 µM |  |
| CN(C1CCN(C(=O)Cn2cc(NC(=O)c3cnn4cccnc34)c(-c3cc(Cl)ccc3OC(F)F)n2)CC1)[C@H]1CCOC1 [Example 442, N-(3-(5-chloro-2-(difluoromethoxy)phenyl)-1-(2-(4-(methyl((S)-tetrahydrofuran-3-yl)amino)piperidin-1-yl)-2-oxoethyl)-1H-pyrazol-4-yl)pyrazolo[1,5-a]pyrimidine-3-carboxamide] | 0.33 nM | 0.0194 µM |  |
| O=C(Nc1cn(Cc2cn(C3CCN(C4CCOCC4)CC3)nn2)nc1-c1cc(Cl)ccc1OC(F)F)c1cnn2cccnc12 [Example 457, N-(3-(5-chloro-2-(difluoromethoxy)phenyl)-1-((1-(1-(tetrahydro-2H-pyran-4-yl)piperidin-4-yl)-1H-1,2,3-triazol-4-yl)methyl)-1H-pyrazol-4-yl)pyrazolo[1,5-a]pyrimidine-3-carboxamide] | 0.45 nM | 0.0156 µM |  |
| CN1CCN(C/C=C/Cn2cc(NC(=O)c3cnn4cccnc34)c(-c3cc(Cl)ccc3OC(F)F)n2)CC1 [Example 395, N-[3-[5-chloro-2-(difluoromethoxy)phenyl]-1-[(2E)-4-(4-methylpiperazin-1-yl)but-2-en-1-yl]-1H-pyrazol-4-yl]pyrazolo[1,5-a]pyrimidine-3-carboxamide] | 1.29 nM | 0.0224 µM |  |
| CCN[C@@H](C)Cn1cc(NC(=O)c2cnn3cccnc23)c(-c2cc(Cl)ccc2OC(F)F)n1 [Example 371, N-[3-[5-chloro-2-(difluoromethoxy)phenyl]-1-[(2S)-2-(ethylamino)propyl]-1H-pyrazol-4-yl]pyrazolo[1,5-a]pyrimidine-3-carboxamide] |  | 0.0146 µM |  |
| CCOC(=O)CCN1CCN(C(=O)Cn2cc(NC(=O)c3cnn4cccnc34)c(-c3cc(Cl)ccc3OC(F)F)n2)CC1 [Example 332] |  | 0.0692 µM |  |
| CN(C1CCN(C(=O)Cn2cc(NC(=O)c3cnn4cccnc34)c(-c3cc(Cl)ccc3OC(F)F)n2)CC1)C1COC1 [Example 459, N-(3-(5-chloro-2-(difluoromethoxy)phenyl)-1-(2-(4-(methyl(oxetan-3-yl)amino)piperidin-1-yl)-2-oxoethyl)-1H-pyrazol-4-yl)pyrazolo[1,5-a]pyrimidine-3-carboxamide] | 0.3 nM | 0.0075 µM |  |
| O=C(Nc1cn(CC(O)CN2CCOCC2)nc1-c1cc(Cl)ccc1OC(F)F)c1cnn2cccnc12 (centres unmarked) [Example 403, N-(3-(5-chloro-2-(difluoromethoxy)phenyl)-1-(2-hydroxy-3-morpholinopropyl)-1H-pyrazol-4-yl)pyrazolo[1,5-a]pyrimidine-3-carboxamide] | 1.46 nM | 0.0283 µM |  |
| CN(CC1(C#N)CC1)C1CCN(C(=O)Cn2cc(NC(=O)c3cnn4cccnc34)c(-c3cc(Cl)ccc3OC(F)F)n2)CC1 [Example 467, N-(3-(5-chloro-2-(difluoromethoxy)phenyl)-1-(2-(4-(((1-cyanocyclopropyl)methyl) (methyl)amino)piperidin-1-yl)-2-oxoethyl)-1H-pyrazol-4-yl)pyrazolo[1,5-a]pyrimidine-3-carboxamide] |  | 0.0075 µM |  |
| CN(C)C(=O)CNC1CCN(C(=O)Cn2cc(NC(=O)c3cnn4cccnc34)c(-c3cc(Cl)ccc3OC(F)F)n2)CC1 [Example 401, N-(3-(5-chloro-2-(difluoromethoxy)phenyl)-1-(2-(4-(2-(dimethylamino)-2-oxoethylamino)piperidin-1-yl)-2-oxoethyl)-1H-pyrazol-4-yl)pyrazolo[1,5-a]pyrimidine-3-carboxamide] | 0.75 nM | 0.152 µM |  |
| CNC(=O)[C@@H]1CCCN1CC1CCN(C(=O)Cn2cc(NC(=O)c3cnn4cccnc34)c(-c3cc(Cl)ccc3OC(F)F)n2)CC1 [Example 425, N-(3-(5-chloro-2-(difluoromethoxy)phenyl)-1-(2-(4-(((S)-2-(methyl-carbamoyl)pyrrolidin-1-yl)methyl)piperidin-1-yl)-2-oxoethyl)-1H-pyrazol-4-yl)pyrazolo[1,5-a]pyrimidine-3-carboxamide] |  | 0.0411 µM |  |
| CN(C1CCN(C(=O)Cn2cc(NC(=O)c3cnn4cccnc34)c(-c3cc(Cl)ccc3OC(F)F)n2)CC1)[C@@H]1CCOC1 [Example 432, N-(3-(5-chloro-2-(difluoromethoxy)phenyl)-1-(2-(4-(methyl((R)-tetrahydrofuran-3-yl)amino)piperidin-1-yl)-2-oxoethyl)-1H-pyrazol-4-yl)pyrazolo[1,5-a]pyrimidine-3-carboxamide] | 0.4 nM | 0.0326 µM |  |
| CN(CC1(C)OCCO1)C1CCN(C(=O)Cn2cc(NC(=O)c3cnn4cccnc34)c(-c3cc(Cl)ccc3OC(F)F)n2)CC1 [Example 438, N-(3-(5-chloro-2-(difluoromethoxy)phenyl)-1-(2-(4-(methyl((2-methyl-1,3-dioxolan-2-yl)methyl)amino)piperidin-1-yl)-2-oxoethyl)-1H-pyrazol-4-yl)pyrazolo[1,5-a]pyrimidine-3-carboxamide] | 0.59 nM | 0.015 µM |  |
| CSCCOC(=O)CNCCn1cc(NC(=O)c2cnn3cccnc23)c(-c2cc(Cl)ccc2OC(F)F)n1 [Example 396, 2-(methylthio)ethyl 2-(2-(3-(5-chloro-2-(difluoromethoxy)phenyl)-4-(pyrazolo[1,5-a]pyrimidine-3-carboxamido)-1H-pyrazol-1-yl)ethylamino)acetate] | 3.29 nM | 0.0382 µM |  |
